Measured values published in patent publication US11253527B2, “Method and composition for inhibiting virus infection” (priority 2019, dated 2022).

Tests used:
[1] = system: HuS-E/2 immortalized human primary hepatocytes cells; assay: MTT cell viability, HuS-E/2 cells; settings: 48 h, 50 μg/ml
HSV-1 virus (KOS strain) = assay: HSV-1 viral yields in supernatants of OC3 cells, plaque assay; type: cell-based, Herpes simplex virus type 1
Method: (§1) FIG. 4 provides Experimental conditions for evaluation of the effects of Antrodia camphorata fruit body extracts on oral epithelial cells during HSV-1 infection. Three experimental conditions, including no-treatment, pre-treatment and post-treatment were performed. Oral epithelial cells (OC3) were pre-treated with media only or media containing each Antrodia camphorata extracts for 2 hours, followed by HSV-1 inoculation. Cells were infected with HSV-1 viruses at multiplicity of infection (MOI) of 5 or mock infected for 1 hour at 37° C. for viral entry to occur. Antrodia camphorata extracts were not added during viral inoculation for 1 hour to avoid of its direct effects on virions. Mock- or HSV-1-infected cells were further incubated in the absence or presence of the drug for 19 hours.
(§2) The oral epithelial cell line (OC3) was used to determine the possible effects of Antrodia camphorata extracts on oral epithelial cells during HSV-1 infection. Cell monolayers were treated as illustrated in FIG. 4 (please also see details in the Materials and Methods section). Three experimental conditions, including no-treatment, pre-treatment and post-treatment were performed. Whether these Antrodia camphorata extracts have effects before or after viral infection were examined. The effects of Antrodia camphorata extracts on viral propagation (viral yields) in infected oral epithelial cells were examined. At 19-20 h post infection, viral yields in the supernatants were determined using the plaque assay. Viability of treated cells was also determined using the MTT assay for the mitochondrial dehydrogenase activity. Moreover, purified HSV-1 virions were directly treated with Antrodia camphorata extracts to examine whether Antrodia camphorata extracts exert anti-HSV-1 activity directly on virus particles before viral entry.
HSV-1 virus (KOS strain) from the extra-cellular fluid of infected Vero cells was purified using sucrose-gradient. Purified viruses were stored frozen in small aliquots. Purified viruses were titered using the plaque assay.
Oral epithelial cells (OC3 cells) were infected with HSV-1 at multiplicity of infection (MOI) of 5 or mock infected for 1 h at 37° C. for viral entry to occur. Unbound viruses were removed. Infected cells were then overlaid with appropriate media and incubated at 37° C. The Antrodia camphorata fruit body extracts used were A2 (Antrodia camphorata extracts), A3 (dehydrosulphurenic acid), A4 (antcin K), A5 (versisponic acid), and A6 (dehydroeburicoic acid). For the effects of Antrodia camphorata fruit body extracts, oral cells were treated in three different experimental conditions (FIG. 1): (1) no treatment, (2) pre-treatment with each Antrodia camphorata fruit body extracts before infection and (3) post-treatment with each Antrodia camphorata fruit body extracts after infection. Purified HSV-1 virions were also incubated directly with media only or media containing Antrodia camphorata fruit body extracts. The viral infectivity of treated virions was then examined using the plaque assay.
Viral titers in the supernatants after infection were determined using the plaque assay. Cells were grown to confluence and infected with tenfold serial dilution of the samples. Cells were then overlaid with medium containing 3% carboxymethylcellulose to prevent the formation of secondary plaques. Cells were incubated until well-defined clear plaques were formed. Cells were fixed with 3.7% formaldehyde and stained with crystal violet. Plaques were observed and counted under an inverted microscope. The viral yield of the media-pretreated HSV-1 infected control was considered to be 100%.

HepG2.2.15 cells = assay: MTT cell viability, HepG2.2.15 cells; settings: 48 h, 50 μg/ml
HSV-1 virions = assay: Direct effect on infectivity of purified HSV-1 virions, plaque assay; type: cell-based, Herpes simplex virus type 1; settings: purified virions incubated directly with drug 1 hour at 37° C., dose-dependent
Method: Purified HSV-1 was incubated directly with media containing various concentrations of each Antrodia camphorata extracts for 1 hour at 37° C. The viral titers were then examined in oral epithelial cells (OC3) using the plaque assay. The results shown are the mean±SEM from at least three independent experiments. Statistical differences are shown by different lowercase letters (analysis of variance, Tukey, α=0.05).
as §2
Oral epithelial cells (OC3 cells) were infected with HSV-1 at multiplicity of infection (MOI) of 5 or mock infected for 1 h at 37° C. for viral entry to occur. Unbound viruses were removed. Infected cells were then overlaid with appropriate media and incubated at 37° C. The Antrodia camphorata fruit body extracts used were A2 (Antrodia camphorata extracts), A3 (dehydrosulphurenic acid), A4 (antcin K), A5 (versisponic acid), and A6 (dehydroeburicoic acid). […]
Viral titers in the supernatants after infection were determined using the plaque assay. […] Plaques were observed and counted under an inverted microscope. […]

[2] = system: Oral epithelial cells (OC3); assay: MTT cell viability of mock- or HSV-1-infected oral epithelial cells (OC3); type: cell-based
Method: as §1
as §2, with “entry. […]” for “entry.”
The mitochondrial dehydrogenase activity of treated cells was evaluated using the FBS-free medium containing 1 mg/ml of 3-[4,5-dimethylthiazol-2-yl]-2,5 diphenyltetrazolium bromide (MTT). […]

Structure (SMILES): C=C(CC[C@@H](C)[C@H]1CC[C@H]2C3=C(C(=O)C[C@]12C)[C@@]1(C)CCC(O)[C@](C)(O)C1CC3O)C(C)C(=O)O (stereo partly shown) [A4, antcin K]
- toxic effect (MTT cell viability) [1]: no toxic effect
- viral yields in the supernatants, post-treatment (HSV-1 virus (KOS strain); OC3 cells post-treated after HSV-1 infection (MOI 5), 19 hours): significantly reduced
- viral yields in the supernatants, pre-treatment (HSV-1 virus (KOS strain); OC3 cells pre-treated 2 hours before HSV-1 infection (MOI 5)): little effects
- viral yield reduced to (HSV-1 virus (KOS strain); infected OC3 cells post-treated with 100 μg/ml, media control = 100%): 19%
- toxic effect (MTT cell viability) (HepG2.2.15 cells): little or no toxic effect
- viral infectivity of treated HSV-1 virions (HSV-1 virions): statistically significantly inhibited
- viability of mock-infected cells or HSV-1 infected cells [2]: not affected evidently
